Test: gradient 5% acetonitrile 3 min, to 50% in 2 min, to 85% in 15 min, held 3 min, 100 µL/min
Conditions: column: Zorbax Extend-C18 2.1 x 50 mm; eluents: water / acetonitrile, 0.1% formic acid
Procedure, shortened: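 Mixtures of ~100 pure standards were chromatographed on a Zorbax Extend-C18 column (2.1 × 50 mm, 1.8 μm) at 100 μL/min using water and acetonitrile, each with 0.1% formic acid. Detection used a quadrupole time-of-flight mass spectrometer in positive and negative ionization mode, and data collection spanned 3 months. Retention time was obtained from adduct peaks picked computationally and each checked manually.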

| Structure (SMILES) | RP-LC retention time [s] |
| --- | --- |
| Cc1ccc2nc(-c3cccc(F)c3)cc(C(N)=O)c2c1 | 880 |
| O=c1c2oc3ccccc3c2ncn1Cc1nc(-c2ccc(OC(F)(F)F)cc2)no1 | 1050 |
| CCOC(=O)c1cnc(N2CCN(c3ccc(OC)cc3)CC2)c2ccccc12 | 1080 |
| COCc1nnc(NC(=O)c2ccccc2OCc2nc(-c3ccc(C)cc3)no2)s1 | 1060 |
| O=C(Nc1ccc2sccc2c1)c1coc2ccccc2c1=O | 1070 |
| CCn1cc(C)c(C(=O)O)c1CC(=O)NCc1cccnc1 | 584 |
| COC(=O)c1cc2c(=O)n(-c3ccc(Cl)cc3Cl)ccc2nc1C | 928 |
| CN(C)C(CNC(=O)C(=O)NCc1ccc2c(c1)OCO2)c1ccsc1 (configuration not stated) | 556 |
| CCCN1C(=O)COc2cc(-c3noc(C(=O)NCCC(C)C)n3)ccc21 | 1060 |
| CCC(CC)C(=O)N1CCN(c2nc(CN3CCOCC3)cs2)CC1 | 597 |
| Cc1ccc(S(=O)(=O)Cc2noc(CCNS(=O)(=O)c3ccc(C)cc3)n2)cc1 | 875 |
| Cc1ccc(-n2nc(C)c3c(=O)n(CC(=O)N4CCN(c5cc(Cl)ccc5C)CC4)ccc32)cc1 | 1100 |
| CCCc1nc2ccc(CCC(=O)Nc3ccc(OC)c(OC)c3)cc2[nH]1 | 610 |
| Cn1cc(CCNS(=O)(=O)c2ccccc2Br)c2cccnc21 | 741 |
| CCOc1ccc(NC(=O)Cn2c(=O)c(CCC(=O)NCC(C)C)nc3ccccc32)cc1 | 824 |
| CCC(C)(C)C(=O)O[C@H]1C[C@@H](C)C=C2C=C[C@H](C)[C@H](CC[C@@H](O)C[C@@H](O)CC(=O)O)[C@H]21 | 1020 |
| O=C(O)/C=C/C(=O)N1Cc2cc3ccccc3nc2C1 | 681 |
| COc1cccc(-c2ccc(=O)n(CCc3nc(-c4ccc(C)cc4)no3)n2)c1 | 999 |

| Structure (SMILES) | RP-LC retention time [s] |
| --- | --- |
| COc1ccc(C(=O)N2CCC3(C2)C(=O)N(C)c2ccccc23)cc1 (configuration not stated) | 743 |
| CCOC(=O)CCNC(=O)N1CCN(Cc2nc3cccnc3n2-c2ccccc2)CC1 | 590 |
| COc1ccc(-c2ccnc3nc(-c4ccccc4OC)nn23)c(F)c1 | 872 |
| COc1ccc(Cl)cc1NC(=O)NCCc1cn(C)c2ncccc12 | 756 |
| CCOC(=O)c1cccc(Nc2c(-c3ccc(C(=O)OC)cc3)nc3cnccn23)c1 | 902 |
| CN1C(=O)c2cccnc2Sc2cc(NC(=O)c3ccc(Br)o3)ccc21 | 788 |
| O=C(Cn1ccn2nc(-c3ccccc3)c(CO)c2c1=O)Nc1cccc(Br)c1 | 868 |
| COc1ccc(-c2cn3cccnc3n2)cc1NC(=O)c1ccc(Br)cc1 | 738 |
| O=C(CS(=O)Cc1cnn(-c2ccccc2)c1-n1cccc1)NCCc1ccc(Cl)cc1 (configuration not stated) | 892 |
| COc1cc(CNC(=O)CCc2c(-c3ccc(F)cc3)nc3ccccn23)cc(OC)c1OC | 632 |
| Cc1cccc(-c2[nH]ncc2-c2ccc3ncccc3n2)n1 | 635 |
| CCn1cc(-c2nc(C)c(C(=O)NCc3cccc(C)c3)s2)c2cccnc21 | 989 |
| Cc1nc(N2CCN(c3ccccn3)CC2)c2c(C)c(C(=O)Nc3cccc(Cl)c3C)sc2n1 | 752 |
| COc1cccc(CNc2nccc(-n3nc(C)cc3C)n2)c1 | 808 |
| CC(CCc1ccccc1)NCc1ccc2c(c1)n(C)c(=O)n2C (configuration not stated) | 610 |
| COc1cc(-c2c(NC(=O)c3ccco3)sc3ccccc3c2=O)cc(OC)c1OC | 828 |
| COc1cc(-c2ccccc2)nc2ccc(NC(=O)COc3ccc(F)cc3)cc12 | 776 |
| CCc1nc(-c2ccc(OC3CCN(C(=O)c4sc(C)nc4C)C3)cc2)no1 (configuration not stated) | 696 |

Other lines, results leading:

| RP-LC retention time [s] | Structure (SMILES) |
| --- | --- |
| 983 | CCN(C(=O)C1CCCN(S(=O)(=O)c2cc(-c3noc(C)n3)cs2)C1)c1ccccc1 (configuration not stated) |
| 796 | Cc1ccc(N2CCN(C(=O)c3ccc4c(c3)CC(=O)N4C)CC2)cc1 |
| 837 | Cc1cc2ncn(S(=O)(=O)N3CCCC3)c2cc1C |
| 733 | Cc1cc(-c2ccc(S(=O)(=O)N3CCC(C(=O)NCc4ccco4)CC3)o2)n[nH]1 |
| 971 | O=C(NCCCc1ccccc1)c1nnc(-c2ccc(S(=O)(=O)N3CCCC3)cc2)o1 |
| 741 | O=C1NCCOCCN(C(=O)Nc2ccccc2)[C@@H]2CCCC[C@H]12 |
| 838 | CC(NC(=O)C1CCCN(C(=O)c2cc3sccc3n2C)C1)c1ccc2c(c1)OCCO2 (configuration not stated) |
| 673 | CN(C)C(=O)c1n[nH]c2c1CN(C(=O)c1cccc(C(F)(F)F)c1)CC2 |
| 569 | CN1CCC(Cc2ccc(C(=O)O)cc2)CC1 |
| 661 | Cc1ccc(CNC(=O)Cn2c(N3CCCCC3)nc(C)cc2=O)cc1 |
| 643 | COC(=O)c1ncn2c1C(=O)N(C1CC1)C(C)(C(=O)NCc1ccc(C)cc1)C2 (configuration not stated) |
| 914 | Cc1ccc(NC(=O)C2CC(=O)N(c3cccc(NC(=O)C4CCC4)c3)C2)cc1Cl (configuration not stated) |
| 616 | CNC(=O)N1CCCN(S(C)(=O)=O)C(c2ccccc2)CC(=O)NCC1 (configuration not stated) |
| 601 | CCCS(=O)(=O)N1CCCCC1c1nc(-c2cccnc2)n[nH]1 (configuration not stated) |
| 824 | CCOC(=O)C1CCCN(c2nc(Nc3ccc(F)cc3)c3n[nH]nc3n2)C1 (configuration not stated) |
| 759 | COc1ccc(CC(=O)N2CCC3(CC2)NC(=O)c2ccc(F)cc2N3C)cc1 |
| 977 | Cc1ccc(-c2ccc(=O)n(Cc3noc(C(=O)N4CCC(C)CC4)n3)n2)cc1 |
| 568 | Cc1c(C(=O)N2CCC(C(=O)NC3CCN(Cc4ccccc4)CC3)CC2)sc2nc[nH]c(=O)c12 |
| 906 | CCOCCn1c(=O)c2c(nc3n2CCCCN3c2ccc(OCC)cc2)n(C)c1=O |
| 1020 | O=c1n(Cc2ccc(F)cc2Cl)nc2c(S(=O)(=O)N3CCCC3)cccn12 |
| 817 | Cc1cc(C)c(S(=O)(=O)N2CC(F)(F)C[C@H]2COc2cccnc2)cc1C |
| 675 | Cc1nc(CNC(=O)C2CCN(C(=O)Nc3ccc(C)c(C)c3)CC2)cs1 |
| 746 | O=C(CCC1CCCC1)Nc1c2c(nn1-c1cccc(Cl)c1)CS(=O)C2 (configuration not stated) |
| 616 | O=C(Nc1ccc(F)cc1)N1CCC(CCOc2ccncc2)CC1 |
| 1190 | COC(=O)c1cccc(NC(=O)c2c(O)c3cccnc3n(-c3ccc(F)cc3)c2=O)c1 |
| 626 | Cc1nnc(NC(=O)CN2CCN(c3ccccc3F)C2=O)s1 |

| RP-LC retention time [s] | Structure (SMILES) |
| --- | --- |
| 802 | Cn1ncc2c(N3CCN(c4ccc(F)cc4)CC3)ncnc21 |
| 691 | CN1C(=O)NC(c2ccc(Cl)cc2)C2=C1CN(c1ccc(C(=O)O)cc1)C2=O (configuration not stated) |
| 922 | Cc1nc(-c2noc(-c3ccc(F)cc3)n2)cn1CC(=O)Nc1ccc(Cl)cc1 |
| 656 | CC(CC(=O)N1CCN(Cc2ccccc2)CC1)S(=O)(=O)c1ccc2c(c1)CCN2C(=O)C1CC1 (configuration not stated) |
| 941 | O=C(NC1CCCC1)C1CCCCN1S(=O)(=O)c1ccc(F)cc1 (configuration not stated) |
| 960 | CC(C)C(NC(=O)Nc1ccc(F)cc1)C(=O)N1CCc2ccccc21 (configuration not stated) |
| 935 | O=C(NCCC1CCN(S(=O)(=O)c2ccc(F)cc2)CC1)Nc1ccc(F)cc1F |
| 827 | CCc1nc2cc(N3CCC(C(=O)Nc4ccc(OC)cc4)CC3)cnc2nc1CC |
| 614 | CCC1CN2C=NC(N3CCN(C(=O)NCc4cccc(OC)c4)CC3)=CC2=N1 (configuration not stated) |
| 621 | CCc1ccc(C(O)CN2CCN(c3ncccn3)CC2)cc1 (configuration not stated) |
| 773 | Cc1ccc(NC(=O)NCC2CCOCC2)cc1Cl |
| 601 | CC(C)Cc1noc(C2(F)CCN(S(=O)(=O)c3ccc(C(C)(C)C)cc3)CC2)n1 |
| 661 | CC(C)C(=O)Nc1ccc(C(=O)NCCNS(=O)(=O)c2ccc3c(c2)OCCO3)cc1 |
| 962 | Cc1ccc(C)c(NC(=O)C2CCC(=O)N2S(=O)(=O)c2ccc(C)c(C)c2)c1 (configuration not stated) |
| 685 | O=C(NCCc1ccccc1)C1CCN(c2cc(N3CCCCC3)ncn2)CC1 |
| 788 | CCn1nccc1C(=O)NC1CCN(C2=NS(=O)(=O)C(c3ccc(F)cc3)=C2C)CC1 |
| 1130 | Cc1ccccc1-c1nc(C2CCN(S(=O)(=O)c3ccc4c(c3)CCC4)CC2)no1 |
| 734 | CCC(C(=O)N1CCN(c2ccccn2)CC1)n1ccc2cc(S(=O)(=O)N3CCCCC3)ccc21 (configuration not stated) |
| 854 | O=C(c1ccccc1Cl)N1CCN(c2cc(-c3ccc(Cl)cc3)[nH]n2)CC1 |
| 990 | CC(=O)Nc1ccc(S(=O)(=O)N2CCCC2c2nc(-c3ccc(F)cc3)no2)cc1Cl (configuration not stated) |
| 764 | Cc1cc2nn(CC(=O)NC3CCCCC3)c(=O)n2c(-c2ccccc2)n1 |
| 573 | O=C(CCc1csc(NC(=O)c2ccc[nH]c2=O)n1)NCC1CCCO1 (configuration not stated) |
| 839 | O=C1NC2(CCN(C(=O)Nc3ccccc3F)CC2)N=C1c1cccc(Cl)c1 |
| 783 | CC1CCN(C(=O)c2ccc(CN3CCN(Cc4ccc(F)cc4)C(=O)C3=O)cc2)CC1 |
| 601 | CC(C)C(=O)Nc1ccc(-n2cnc(C(=O)N3CCN(C4CCCCC4)CC3)c2)nc1 |

From the METLIN SMRT retention time set (Domingo-Almenara et al. 2019)
